Source: ChEMBL document CHEMBL4715869, “N-(Pyrimidin-2-yl)-1,2,3,4-tetrahydroisoquinolin-6-amine Derivatives as Selective Janus Kinase 2 Inhibitors for the Treatment of Myeloproliferative Neoplasms” (J Med Chem, 2020)

Key:
Homo sapiens = organism: Homo sapiens; test: Selectivity index, ratio of IC50 for inhibition of FLT3 ITD mutant in human MOLM13 cells to IC50 for inhibition of JAK2 V617F mutant in human SET-2 cells; type: cell-based
[1] = target: T1, Tyrosine-protein kinase JAK3 (Homo sapiens, UniProt P52333); test: Inhibition of recombinant human JAK3 (781 to end residues) using GGEEEEYFELVKKKK as substrate measured after 40 mins in presence of [gamm33P]ATP by scintillation counting method
T1 sequence (P52333 whole entry): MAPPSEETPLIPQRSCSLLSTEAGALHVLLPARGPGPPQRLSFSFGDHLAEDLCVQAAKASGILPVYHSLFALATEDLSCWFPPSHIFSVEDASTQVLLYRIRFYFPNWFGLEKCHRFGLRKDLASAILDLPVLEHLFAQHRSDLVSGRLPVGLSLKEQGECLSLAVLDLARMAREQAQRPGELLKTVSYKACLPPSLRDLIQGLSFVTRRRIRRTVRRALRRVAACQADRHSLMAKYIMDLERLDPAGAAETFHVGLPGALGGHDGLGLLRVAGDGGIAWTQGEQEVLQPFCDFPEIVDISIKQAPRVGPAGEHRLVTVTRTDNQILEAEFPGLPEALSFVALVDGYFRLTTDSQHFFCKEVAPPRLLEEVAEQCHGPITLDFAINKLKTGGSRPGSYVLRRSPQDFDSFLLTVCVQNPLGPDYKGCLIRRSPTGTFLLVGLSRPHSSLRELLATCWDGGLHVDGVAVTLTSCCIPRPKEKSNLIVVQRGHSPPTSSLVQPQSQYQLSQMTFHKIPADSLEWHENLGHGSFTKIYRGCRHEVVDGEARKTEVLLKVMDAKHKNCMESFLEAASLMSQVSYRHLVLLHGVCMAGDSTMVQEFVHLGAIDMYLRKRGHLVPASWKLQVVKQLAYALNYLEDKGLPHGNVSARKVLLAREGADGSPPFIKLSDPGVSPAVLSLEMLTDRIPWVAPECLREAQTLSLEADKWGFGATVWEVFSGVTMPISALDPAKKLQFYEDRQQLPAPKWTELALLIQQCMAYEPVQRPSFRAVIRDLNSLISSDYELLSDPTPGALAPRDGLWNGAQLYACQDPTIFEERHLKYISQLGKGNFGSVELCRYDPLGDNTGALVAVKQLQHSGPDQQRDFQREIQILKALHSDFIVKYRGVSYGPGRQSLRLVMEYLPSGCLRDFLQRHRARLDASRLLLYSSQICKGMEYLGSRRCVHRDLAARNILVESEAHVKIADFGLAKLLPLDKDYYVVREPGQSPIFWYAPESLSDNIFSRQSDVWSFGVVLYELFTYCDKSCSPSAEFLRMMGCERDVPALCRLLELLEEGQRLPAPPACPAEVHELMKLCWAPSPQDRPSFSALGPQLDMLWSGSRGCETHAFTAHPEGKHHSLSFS

[2] = Selectivity index, ratio of IC50 for inhibition of recombinant human JAK3 (781 to end residues) to IC50 for inhibition of recombinant human JAK2 (808 to end residues)
[3] = Selectivity index, ratio of IC50 for inhibition of human JAK1 (866 to end residues) to IC50 for inhibition of recombinant human JAK2 (808 to end residues)
[4] = target: Receptor-type tyrosine-protein kinase FLT3 (Homo sapiens, UniProt P36888, D835Y); test: Inhibition of recombinant human FLT3 D835Y mutant (564 to end residues) using EAIYAAPFAKKK as substrate at 40 mins in presence of [gamma-33ATP] by scintillation counting based radiometry assay
[5] = Cytotoxicity against rat H9c2(2-1) cells assessed as reduction in cell viability incubated for 72 hrs by MTT assay; type: cell-based; details: H9c2, 72 h
[6] = target: Tyrosine-protein kinase JAK1 (Homo sapiens, UniProt P23458); test: Inhibition of human JAK1 (866 to end residues) using GEEPLYWSFPAKKK as substrate after 40 mins by [gamma-33ATP] radiometric assay
Tyrosine-protein kinase JAK1, sequence (P23458 whole entry): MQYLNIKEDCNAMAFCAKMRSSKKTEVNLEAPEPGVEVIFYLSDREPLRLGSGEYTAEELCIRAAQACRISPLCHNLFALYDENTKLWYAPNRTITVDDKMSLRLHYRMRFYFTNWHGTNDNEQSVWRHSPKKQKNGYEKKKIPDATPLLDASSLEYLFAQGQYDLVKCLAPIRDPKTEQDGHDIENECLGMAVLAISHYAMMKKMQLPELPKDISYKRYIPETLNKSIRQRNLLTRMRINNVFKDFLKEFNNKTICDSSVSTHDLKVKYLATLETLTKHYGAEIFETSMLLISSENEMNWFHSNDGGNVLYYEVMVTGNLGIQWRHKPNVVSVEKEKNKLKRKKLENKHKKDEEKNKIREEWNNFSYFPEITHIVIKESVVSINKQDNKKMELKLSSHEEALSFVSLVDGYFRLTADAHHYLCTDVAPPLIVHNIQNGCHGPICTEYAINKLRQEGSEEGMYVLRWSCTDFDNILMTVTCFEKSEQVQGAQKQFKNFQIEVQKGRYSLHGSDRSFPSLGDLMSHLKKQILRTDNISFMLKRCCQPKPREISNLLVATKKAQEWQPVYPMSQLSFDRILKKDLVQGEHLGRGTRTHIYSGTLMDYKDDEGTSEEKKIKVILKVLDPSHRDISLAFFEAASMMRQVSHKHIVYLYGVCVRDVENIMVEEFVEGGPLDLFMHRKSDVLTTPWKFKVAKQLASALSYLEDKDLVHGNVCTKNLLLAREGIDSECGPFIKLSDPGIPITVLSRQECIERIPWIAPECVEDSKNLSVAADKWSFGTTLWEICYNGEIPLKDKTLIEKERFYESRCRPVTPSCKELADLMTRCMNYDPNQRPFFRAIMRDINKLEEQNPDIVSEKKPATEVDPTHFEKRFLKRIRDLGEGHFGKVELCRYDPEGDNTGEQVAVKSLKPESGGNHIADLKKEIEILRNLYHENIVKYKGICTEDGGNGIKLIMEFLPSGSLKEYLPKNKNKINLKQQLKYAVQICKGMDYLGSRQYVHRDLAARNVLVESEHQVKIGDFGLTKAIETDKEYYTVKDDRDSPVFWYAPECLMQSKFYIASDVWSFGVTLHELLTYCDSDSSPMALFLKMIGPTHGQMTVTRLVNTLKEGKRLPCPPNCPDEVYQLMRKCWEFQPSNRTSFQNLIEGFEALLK

[7] = target: Tyrosine-protein kinase JAK2 (Homo sapiens, UniProt O60674); test: Inhibition of recombinant human JAK2 (808 to end residues) KTFCGTPEYLAPEVRREPRILSEEEQEMFRDFDYIADWC as substrate measured after 40 mins in presence of [gamm33P]ATP by scintillation counting method
Tyrosine-protein kinase JAK2, sequence (O60674 whole entry): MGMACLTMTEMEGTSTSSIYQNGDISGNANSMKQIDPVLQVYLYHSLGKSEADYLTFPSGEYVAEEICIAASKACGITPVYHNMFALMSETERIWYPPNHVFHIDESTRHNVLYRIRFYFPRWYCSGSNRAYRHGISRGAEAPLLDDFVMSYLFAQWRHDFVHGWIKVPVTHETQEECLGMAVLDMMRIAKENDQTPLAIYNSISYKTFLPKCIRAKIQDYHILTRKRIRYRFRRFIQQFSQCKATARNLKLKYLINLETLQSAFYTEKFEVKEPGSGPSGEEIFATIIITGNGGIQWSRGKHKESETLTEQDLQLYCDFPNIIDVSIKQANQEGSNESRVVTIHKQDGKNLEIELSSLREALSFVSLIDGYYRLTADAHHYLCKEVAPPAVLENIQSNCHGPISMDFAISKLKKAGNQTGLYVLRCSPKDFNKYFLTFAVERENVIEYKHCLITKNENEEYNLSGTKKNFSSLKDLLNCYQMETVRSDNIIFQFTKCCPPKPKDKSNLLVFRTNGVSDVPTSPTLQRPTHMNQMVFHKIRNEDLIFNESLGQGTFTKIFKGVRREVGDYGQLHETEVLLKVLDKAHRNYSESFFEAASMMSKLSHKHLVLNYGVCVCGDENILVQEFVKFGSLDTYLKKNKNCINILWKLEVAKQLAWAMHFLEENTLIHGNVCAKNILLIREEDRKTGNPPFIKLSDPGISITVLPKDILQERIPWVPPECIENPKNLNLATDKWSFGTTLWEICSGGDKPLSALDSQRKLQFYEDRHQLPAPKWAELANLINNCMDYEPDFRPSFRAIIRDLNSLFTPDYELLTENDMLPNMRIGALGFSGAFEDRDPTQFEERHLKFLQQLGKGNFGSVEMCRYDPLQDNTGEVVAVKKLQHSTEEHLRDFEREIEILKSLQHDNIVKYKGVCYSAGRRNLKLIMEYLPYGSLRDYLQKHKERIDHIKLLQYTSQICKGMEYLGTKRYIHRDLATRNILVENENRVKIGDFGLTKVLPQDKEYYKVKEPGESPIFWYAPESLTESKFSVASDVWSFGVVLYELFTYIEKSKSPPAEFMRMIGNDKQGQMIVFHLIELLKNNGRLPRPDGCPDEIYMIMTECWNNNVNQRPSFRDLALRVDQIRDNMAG

[8] = test system: Receptor-type tyrosine-protein kinase FLT3 (Homo sapiens), P36888 [UNDEFINED MUTATION]; test: Inhibition of FLT3 ITD mutant in human MOLM13 cells assessed as residual activity at 100 nM relative to control; type: cell-based; details: MOLM-13
[9] = Selectivity index, ratio of IC50 for inhibition of recombinant human FLT3 D835Y mutant (564 to end residues) to IC50 for inhibition of recombinant human JAK2 (808 to end residues)
L02 = test: Cytotoxicity against human L02 cells assessed as reduction in cell viability incubated for 72 hrs by MTT assay; type: cell-based; details: L02, 72 h
[10] = Selectivity index, ratio of IC50 for inhibition of recombinant human TYK2 (875 to end residues) to IC50 for inhibition of recombinant human JAK2 (808 to end residues)
Vero = test: Cytotoxicity against African green monkey Vero cells assessed as reduction in cell viability incubated for 72 hrs by MTT assay; type: cell-based; details: Chlorocebus sabaeus
[11] = target: Non-receptor tyrosine-protein kinase TYK2 (Homo sapiens, UniProt P29597); test: Inhibition of recombinant human TYK2 (875 to end residues) using GGMEDIYFEFMGGKKK as substrate incubated for 40 mins in presence of [gamma33P]ATP by scintillation counting based radiometry assay
Non-receptor tyrosine-protein kinase TYK2, sequence (P29597 whole entry): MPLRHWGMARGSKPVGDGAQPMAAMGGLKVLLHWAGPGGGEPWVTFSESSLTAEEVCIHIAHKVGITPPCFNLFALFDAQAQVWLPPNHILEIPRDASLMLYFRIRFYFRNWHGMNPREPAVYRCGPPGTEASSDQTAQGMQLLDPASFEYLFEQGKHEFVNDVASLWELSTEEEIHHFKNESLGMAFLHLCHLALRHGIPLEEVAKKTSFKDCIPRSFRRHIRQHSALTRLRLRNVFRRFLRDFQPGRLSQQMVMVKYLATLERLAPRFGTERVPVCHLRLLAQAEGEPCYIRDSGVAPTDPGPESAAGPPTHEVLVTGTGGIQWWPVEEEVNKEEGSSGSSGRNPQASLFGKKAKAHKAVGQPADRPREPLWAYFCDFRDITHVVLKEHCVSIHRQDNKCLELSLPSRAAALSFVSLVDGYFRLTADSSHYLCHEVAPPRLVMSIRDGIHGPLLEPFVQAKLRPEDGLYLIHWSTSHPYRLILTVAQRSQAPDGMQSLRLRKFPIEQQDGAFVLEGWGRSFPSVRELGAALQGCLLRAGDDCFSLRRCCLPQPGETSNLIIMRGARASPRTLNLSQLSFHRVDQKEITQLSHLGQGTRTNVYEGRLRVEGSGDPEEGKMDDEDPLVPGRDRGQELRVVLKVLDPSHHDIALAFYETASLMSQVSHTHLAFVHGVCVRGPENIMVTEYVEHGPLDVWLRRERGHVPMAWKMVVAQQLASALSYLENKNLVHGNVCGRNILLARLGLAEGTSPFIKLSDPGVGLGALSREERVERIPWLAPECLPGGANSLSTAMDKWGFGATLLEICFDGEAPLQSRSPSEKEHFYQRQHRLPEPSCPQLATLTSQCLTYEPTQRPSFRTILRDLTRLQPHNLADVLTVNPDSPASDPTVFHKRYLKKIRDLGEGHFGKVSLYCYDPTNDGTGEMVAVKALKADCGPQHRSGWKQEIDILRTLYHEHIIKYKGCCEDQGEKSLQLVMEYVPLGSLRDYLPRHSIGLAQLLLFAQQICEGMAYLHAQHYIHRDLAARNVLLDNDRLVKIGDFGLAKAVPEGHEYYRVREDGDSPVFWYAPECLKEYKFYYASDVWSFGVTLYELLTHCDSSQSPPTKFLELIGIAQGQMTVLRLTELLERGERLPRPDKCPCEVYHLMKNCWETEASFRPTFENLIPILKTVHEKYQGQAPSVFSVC

SMILES: COC(=O)CCCN1CCc2cc(Nc3ncc(C)c(-c4cnn(C(C)C)c4)n3)ccc2C1
- Ratio IC50 (Homo sapiens): 1.2

SMILES: COC(=O)/C=C/CN1CCc2cc(Nc3ncc(C)c(-c4cnn(C(C)C)c4)n3)ccc2C1
- IC50 [1]: 77 nM
- Ratio IC50 [2]: 38.5
- Ratio IC50 [3]: 13
- IC50 [4]: 23 nM
- IC50 [5]: 2890 nM
- IC50 [6]: 26 nM
- IC50 [7]: 2 nM
- Activity [8]: 53%
- Ratio IC50 [9]: 11.5
- IC50 (L02): 1530 nM
- Ratio IC50 [10]: 44
- IC50 (Vero): 2330 nM
- IC50 [11]: 88 nM
- Ratio IC50 (Homo sapiens): 36.3

SMILES: Cc1cnc(Nc2ccc3c(c2)CCN(C/C=C/C(=O)NC(C)(C)C)C3)nc1-c1cnn(C(C)C)c1
- Ratio IC50 (Homo sapiens): 1.7

SMILES: CC(C)n1cc(-c2nc(Nc3ccc4c(c3)CCN(CCCO)C4)ncc2F)cn1
- Activity [8]: 44%
- Ratio IC50 (Homo sapiens): 1.4

SMILES: Cc1cnc(Nc2ccc3c(c2)CCN(CCCCO)C3)nc1-c1cnn(C(C)C)c1
- Activity [8]: 56%
- Ratio IC50 (Homo sapiens): 3.3

SMILES: CC(C)n1cc(-c2nc(Nc3ccc4c(c3)CCN(C(=O)CO)C4)ncc2F)cn1
- Activity [8]: 39%
- Ratio IC50 (Homo sapiens): 0.79

SMILES: CC(C)n1cc(-c2nc(Nc3ccc4c(c3)CCN(CCCCO)C4)ncc2F)cn1
- Activity [8]: 39%
- Ratio IC50 (Homo sapiens): 0.75

SMILES: Cc1ccc(C(=O)CCC(=O)N2CCc3cc(Nc4ncc(C)c(-c5cnn(C(C)C)c5)n4)ccc3C2)cc1
- Ratio IC50 (Homo sapiens): 1.7

SMILES: Cc1cnc(Nc2ccc3c(c2)CN(CC#N)CC3)nc1-c1cnn(C(C)C)c1
- Activity [8]: 51%
- Ratio IC50 (Homo sapiens): 4.5

SMILES: CC(C)n1cc(-c2nc(Nc3ccc4c(c3)CCN(CCCCCO)C4)ncc2F)cn1
- Activity [8]: 42%
- Ratio IC50 (Homo sapiens): 0.72

SMILES: Cc1cnc(Nc2ccc3c(c2)CCN(CCC#N)C3)nc1-c1cnn(C(C)C)c1
- Activity [8]: 35%
- Ratio IC50 (Homo sapiens): 1.2

SMILES: Cc1cnc(Nc2ccc3c(c2)CCN(C/C=C/C(=O)O)C3)nc1-c1cnn(C(C)C)c1
- Activity [8]: 78%
- Ratio IC50 (Homo sapiens): 2.5

SMILES: CCCCN1CCc2cc(Nc3ncc(C)c(-c4cnn(C(C)C)c4)n3)ccc2C1
- Activity [8]: 57%
- Ratio IC50 (Homo sapiens): 1.3

SMILES: C=CCN1CCc2cc(Nc3ncc(C)c(-c4cnn(C(C)C)c4)n3)ccc2C1
- Activity [8]: 67%
- Ratio IC50 (Homo sapiens): 3

SMILES: CC#CCN1CCc2cc(Nc3ncc(C)c(-c4cnn(C(C)C)c4)n3)ccc2C1
- Activity [8]: 85%
- Ratio IC50 (Homo sapiens): 2

SMILES: COC(=O)/C=C/CN1CCc2ccc(Nc3ncc(C)c(-c4cnn(C(C)C)c4)n3)cc2C1
- Activity [8]: 43%
- Ratio IC50 (Homo sapiens): 6

SMILES: Cc1cnc(Nc2ccc3c(c2)CN(C(=O)/C=C/C(=O)c2ccccc2)CC3)nc1-c1cnn(C(C)C)c1
- IC50 [1]: 89 nM
- Ratio IC50 [2]: 44.5
- Ratio IC50 [3]: 15
- IC50 [4]: 16 nM
- IC50 [6]: 30 nM
- IC50 [7]: 2 nM
- Activity [8]: 47%
- Ratio IC50 [9]: 8
- Ratio IC50 [10]: 26
- IC50 [11]: 52 nM
- Ratio IC50 (Homo sapiens): 12.5

SMILES: Cc1cnc(Nc2ccc3c(c2)CCN(CCO)C3)nc1-c1cnn(C(C)C)c1
- Activity [8]: 66%
- Ratio IC50 (Homo sapiens): 3.9

SMILES: CCN(CC)C(=O)/C=C/CN1CCc2cc(Nc3ncc(C)c(-c4cnn(C(C)C)c4)n3)ccc2C1
- Activity [8]: 66%
- Ratio IC50 (Homo sapiens): 2

SMILES: Cc1cnc(Nc2ccc3c(n2)CCN(CCCO)C3)nc1-c1cnn(C(C)C)c1
- Activity [8]: 88%
- Ratio IC50 (Homo sapiens): 1.1

SMILES: Cc1cnc(Nc2ccc3c(c2)CCN(CCCCCO)C3)nc1-c1cnn(C(C)C)c1
- Activity [8]: 63%

SMILES: CCCNC(=O)N1CCc2cc(Nc3ncc(C)c(-c4cnn(C(C)C)c4)n3)ccc2C1
- Ratio IC50 (Homo sapiens): 1.2

SMILES: Cc1ccc(C(=O)/C=C/C(=O)N2CCc3ccc(Nc4ncc(C)c(-c5cnn(C(C)C)c5)n4)cc3C2)cc1
- IC50 [1]: 28 nM
- IC50 [4]: 18 nM
- IC50 [5]: 1690 nM
- Activity [8]: 59%
- IC50 (L02): 2030 nM
- IC50 (Vero): 2470 nM
- IC50 [11]: 30 nM

SMILES: Cc1cnc(Nc2ccc3c(c2)CCN(C/C=C/C(=O)NCCN2CCCCC2)C3)nc1-c1cnn(C(C)C)c1
- Ratio IC50 (Homo sapiens): 3.8

SMILES: CC(C)n1cc(-c2nc(Nc3ccc4c(c3)CCN(CCO)C4)ncc2F)cn1
- Activity [8]: 43%
- Ratio IC50 (Homo sapiens): 0.84

SMILES: Cc1cnc(Nc2ccc3c(c2)CCN(C(=O)Nc2cccc(Cl)c2)C3)nc1-c1cnn(C(C)C)c1
- Activity [8]: 99%
- Ratio IC50 (Homo sapiens): 0.6

SMILES: CCOCCN1CCc2cc(Nc3ncc(C)c(-c4cnn(C(C)C)c4)n3)ccc2C1
- Activity [8]: 40%
- Ratio IC50 (Homo sapiens): 1.7

SMILES: Cc1cnc(Nc2cc3c(cc2F)CN(CCO)CC3)nc1-c1cnn(C(C)C)c1
- Ratio IC50 (Homo sapiens): > 1.2

SMILES: Cc1cnc(Nc2ccc3c(c2)CN(C(=O)/C=C/CN(C)C)CC3)nc1-c1cnn(C(C)C)c1
- IC50 [1]: 147 nM
- Ratio IC50 [2]: 16
- Ratio IC50 [3]: 10
- IC50 [4]: 23 nM
- IC50 [6]: 91 nM
- IC50 [7]: 9 nM
- Activity [8]: 52%
- Ratio IC50 [9]: 2.5
- Ratio IC50 [10]: 5
- IC50 [11]: 45 nM
- Ratio IC50 (Homo sapiens): 29.8

SMILES: Cc1ccc(C(=O)/C=C/C(=O)N2CCc3cc(Nc4ncc(C)c(-c5cnn(C(C)C)c5)n4)ccc3C2)cc1
- IC50 [1]: 50 nM
- Ratio IC50 [2]: 16.6
- Ratio IC50 [3]: 20
- IC50 [4]: 30 nM
- IC50 [5]: 1430 nM
- IC50 [6]: 60 nM
- IC50 [7]: 3 nM
- Activity [8]: 55%
- Ratio IC50 [9]: 10
- IC50 (L02): 2660 nM
- Ratio IC50 [10]: 33.3
- IC50 (Vero): 1050 nM
- IC50 [11]: 100 nM
- Ratio IC50 (Homo sapiens): 51.6

SMILES: CCNC(=O)N1CCc2cc(Nc3ncc(C)c(-c4cnn(C(C)C)c4)n3)ccc2C1
- Ratio IC50 (Homo sapiens): 0.45

SMILES: C#CCN1CCc2cc(Nc3ncc(C)c(-c4cnn(C(C)C)c4)n3)ccc2C1
- Activity [8]: 79%

SMILES: Cc1cnc(Nc2ccc3c(c2)CCN3CCO)nc1-c1cnn(C(C)C)c1
- Activity [8]: 79%
- Ratio IC50 (Homo sapiens): 0.54

SMILES: Cc1cnc(Nc2ccc3c(c2)CCN(CCCO)C3)nc1-c1cnn(C(C)C)c1
- Activity [8]: 62%
- Ratio IC50 (Homo sapiens): 3.4

SMILES: Cc1cnc(Nc2ccc3c(c2)CN(CCO)C3)nc1-c1cnn(C(C)C)c1
- Activity [8]: 67%

SMILES: Cc1cnc(Nc2ccc3c(c2)CCN(CC#N)C3)nc1-c1cnn(C(C)C)c1
- IC50 [1]: 54 nM
- Ratio IC50 [2]: 7.7
- Ratio IC50 [3]: 6.1
- IC50 [4]: 108 nM
- IC50 [6]: 43 nM
- IC50 [7]: 7 nM
- Activity [8]: 50%
- Ratio IC50 [9]: 15.4
- Ratio IC50 [10]: 8
- IC50 [11]: 56 nM
- Ratio IC50 (Homo sapiens): 8.8

SMILES: Cc1cnc(Nc2ccc3c(c2)CCN(C(=O)/C=C/C(=O)c2ccccc2)C3)nc1-c1cnn(C(C)C)c1
- IC50 [1]: 120 nM
- Ratio IC50 [2]: 12
- Ratio IC50 [3]: 4.7
- IC50 [4]: 34 nM
- IC50 [6]: 47 nM
- IC50 [7]: 10 nM
- Activity [8]: 41%
- Ratio IC50 [9]: 3.4
- Ratio IC50 [10]: 7.9
- IC50 [11]: 79 nM
- Ratio IC50 (Homo sapiens): 8.8

SMILES: Cc1cnc(Nc2ccc3c(c2)CCN(C(=O)CCCN(C)C)C3)nc1-c1cnn(C(C)C)c1
- Ratio IC50 (Homo sapiens): 1.5
